Where two headings read alike, the source gives them in different places.
How the values were obtained:
[1] = target: T1, CYP2B6 (Homo sapiens, UniProt P20813); assay: CYP450 inhibition, fluorescent probe substrate; assay type: in vitro ADME
T1 construct: purchased Life Technologies P3028; host or cells: Baculosomes
T1 sequence (P20813 1-491): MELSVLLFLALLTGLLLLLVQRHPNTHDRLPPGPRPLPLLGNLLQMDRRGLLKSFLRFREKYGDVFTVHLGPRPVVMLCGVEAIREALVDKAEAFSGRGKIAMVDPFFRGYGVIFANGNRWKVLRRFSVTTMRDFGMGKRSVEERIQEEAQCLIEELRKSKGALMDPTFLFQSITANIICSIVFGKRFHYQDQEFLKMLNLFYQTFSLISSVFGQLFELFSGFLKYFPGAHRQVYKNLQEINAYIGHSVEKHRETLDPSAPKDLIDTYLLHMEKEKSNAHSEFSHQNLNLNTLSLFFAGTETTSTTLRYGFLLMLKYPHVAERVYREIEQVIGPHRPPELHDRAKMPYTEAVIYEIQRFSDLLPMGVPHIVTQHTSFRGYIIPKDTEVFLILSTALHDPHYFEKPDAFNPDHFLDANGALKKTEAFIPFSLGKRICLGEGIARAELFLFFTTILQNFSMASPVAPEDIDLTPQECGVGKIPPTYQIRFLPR
Experimental: (§1) Methods: Recombinant human CYP450 isoenzymes were used to metabolize pro-fluorescent probe substrates to fluorescent products. IC50 values determined from the effect of test compounds on the metabolism of these probe substrates were then used to determine inhibitory potency against CYP450 isoforms. The chemical reagents included:
(§2) The test system was based on a three-step procedure with a “mix and read” format, where reaction and reading were performed at 37° C. The assays described herein measure in vitro inhibitory effects (pIC50) of compounds on the human P450 isoforms (1A2, 2B6, 2C8, 2C9, 2C19, 2D6, 3A4) expressed in recombinant microsomes. Pro-fluorescent probe substrates were metabolized to fluorescent products by the enzymes. Fluorescence was measured in kinetic mode (1 read/minutes for 10 minutes), and the fluorescence rate was calculated.
(§3) Inhibition of the fluorescent signal resulting from P450 activation indicated inhibitory activity and facilitated calculation of the compound pIC50. A quality check was included in each compound plate, wherein the signal window was monitored by performing Z′ calculations ([…] ) and the antagonist potency of internal standards was within the pIC50±2SD range. Concentration response curves (CRCs) of compounds were run on two different test occasions (n 2) by preparing serial dilutions from the same compound stock solution.
(§4) To prepare the compound plate, test compounds serial dilutions 1 to 3 were performed from a 10 mM stock solution in DMSO by Biomek FX to generate 10 point CRC with the highest concentrations in columns 3 and 13.
(§5) 100% DMSO was placed in columns 1 and 2 and used for assay low controls. CYP inhibitor (10 mM miconazole solution in DMSO) was placed in columns 23 and 24 and served as an assay high controls. 1 μL copy plates were then stamped into V-bottom drug plates at a concentration that is 200 fold the final assay concentration. The copy plates were diluted prior to the experiment with assay buffer to reach 4 times the final assay concentration (2% w/v DMSO).
(§6) A reference compound (e.g., miconazole) was included in each compound plate in row A, column 3 and 13. The reference compound was diluted and stamped together with test compounds. The final concentrations of the 10 point CRCs of test compounds in the assay plate were 5.00E-05; 1.67E-05; 5.56E-06; 1.85E-06; 6.17E-07; 2.06E-07; 6.86E-08; 2.29E-08; 7.62E-09 and 2.54E-09, respectively. All solutions were prepared immediately before the assay.
(§7) The CYP3A4 and CYP2C8 were assayed using the Vivid CYP3A4 Baculosomes, CYP2C8 Baculosomes and Vivid DBOMF Substrate (Life Technologies, cat. P2377, PV6138 and P2974 respectively), while 2B6 is tested by Vivid CYP2B6 Baculosomes and Vivid BOMCC Substrate (Life Technologies, cat. P3028 and P2975). Test compounds were prepared as specified above.
(§8) The assay plate was prepared by preparing pre-mix by diluting P450 Baculosomes Plus Reagent and Vivid Regeneration System in 1× Vivid CYP450 Reaction Buffer (Potassium Phosphate Buffer, 100 mM, pH 8.0). Briefly, 8 μL/ml of P450 Baculosomes Plus Reagent and 16 μL/ml of Vivid Regeneration System were added to achieve the appropriate final concentrations and then mixed by inversion. 30 μL of pre-mix were dispensed into each well of a black, 384-well plate.
(§9) Next, 10 μL/well from the compound plate was added and incubated for 10 minutes at 37° C. on a plate shaker, while a mixture of Vivid Substrate and Vivid NADP+ in Vivid CYP450 Reaction Buffer was prepared. The reaction was initiated by adding 10 μL/well of the Vivid Substrate and NADP+ mixture, before transferring the plate into the fluorescent plate reader (immediately, within 2 minutes), and fluorescence was monitored every minute for 10 minutes according to the specific protocol.
(§10) Regarding data analysis, inhibition is expressed as a percentage. […] Curve fitting and pIC50 estimations are carried out using a four-parameter logistic model in Morphit.

[2] = target: T2, CYP2C8 (Homo sapiens, UniProt P10632); assay: CYP450 inhibition, fluorescent probe substrate; assay type: in vitro ADME
T2 construct: purchased Life Technologies PV6138; host or cells: Baculosomes
T2 sequence (P10632 1-490): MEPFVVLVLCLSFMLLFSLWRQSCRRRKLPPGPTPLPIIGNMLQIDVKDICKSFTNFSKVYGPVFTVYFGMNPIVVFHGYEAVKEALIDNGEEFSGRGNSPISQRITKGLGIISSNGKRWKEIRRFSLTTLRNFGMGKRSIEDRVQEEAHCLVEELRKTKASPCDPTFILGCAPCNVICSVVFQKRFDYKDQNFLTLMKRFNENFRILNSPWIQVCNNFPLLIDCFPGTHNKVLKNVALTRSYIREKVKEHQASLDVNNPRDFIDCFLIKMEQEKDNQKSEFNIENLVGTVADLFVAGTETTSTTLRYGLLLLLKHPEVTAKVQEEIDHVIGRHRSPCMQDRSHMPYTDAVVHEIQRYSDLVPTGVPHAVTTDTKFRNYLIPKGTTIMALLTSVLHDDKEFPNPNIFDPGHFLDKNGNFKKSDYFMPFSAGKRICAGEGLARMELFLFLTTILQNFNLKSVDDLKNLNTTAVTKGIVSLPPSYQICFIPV
Experimental: as §1, §2, §3, §4, §5, §6, §7, §8, §9, §10

[3] = recombinant human isoenzyme, n=2, read-out: Inhibition of CYP2B6, IC50
[4] = recombinant human isoenzyme, n=2, read-out: Inhibition of CYP2C8, IC50

What does the source list for COC(=O)c1cc2c(cc1OC)CC(N)C2 (stereo not drawn) [CMP-401]?
IC50 [1, 3]: > 50 µM; IC50 [2, 4]: > 50 µM

COC(=O)COc1ccc2c(c1)CC(N)C2 (stereo not drawn) [CMP-402] was tested. Which IC50 [1, 3] did it give?
The IC50 was over 50 µM.

And the IC50 [2, 4]?
Its IC50 is over 50 µM.

COC(=O)c1ccc2c(c1)CC(N)C2 (stereo not drawn) [CMP-405, 2-aminoindane-5-methylcarboxylate] was tested. Which IC50 [1, 3] did it give?
Its IC50 is over 50 µM.

And the IC50 [2, 4]?
The IC50 was over 50 µM.

With CNC(C)Cc1ccc2c(c1)OCO2 (stereo not drawn) [MDMA] as the molecule, how does the IC50 [1, 3] read?
Its IC50 is over 50 µM.

And the IC50 [2, 4]?
The IC50 was over 50 µM.

What does the source list for COc1ccc2c(c1)CC(N)C2 (stereo not drawn) [MEAI, 5-methoxy-2-aminoindane]?
IC50 [1]: > 50 µM; IC50 [2]: > 50 µM

Which results are given for COc1cc2c(cc1C)CC(N)C2 (stereo not drawn) [MMAI, 5-methoxy-6-methyl-2-aminoindane]?
IC50 [1]: > 50 µM; IC50 [2]: > 50 µM

From patent US20260159474A1, “Aminoindane Compounds and Compositions and Methods of Their Therapeutic Use” (Solvonis Therapeutics Ireland Holdings Limited, priority 2021, published 2026)
